Experimental data taken from patent US9302996B2, “Continuous arycyclic compound” (MITSUBISHI TANABE PHARMA CORPORATION, priority 2010, dated 2016).
Like-named read-outs stand apart in the source and are kept apart here.

Legend:
Type in all cases: in vivo
ICR mice = assay: Triglyceride (TG) in blood plasma increase-inhibiting action due to lipid administration; conditions: Mus musculus; male ICR mice, 5 mg/kg oral, lipid (Intralipos 20%) after 30 minutes, plasma TG 2 hours after lipid; read-out: Inhibiting rate of TG-increase in blood plasma (5 mg/kg)
How it was run: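 Male ICR mice (6–9 weeks), fasted overnight, dosed orally with compound in 0.2% CMC; oral lipid emulsion (10 mL/kg) 30 min later. Plasma TG from tail vein before and 2 h after lipid load; rise in TG expressed as percent inhibition versus vehicle group.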

C57BL/6J mice = assay: Antifeeding activity (high fat diet intake up to 4 hours); conditions: Mus musculus, male C57BL/6J mice, 5 mg/kg oral, food ingested up to 4 hours, read-out: Antifeeding rate (5 mg/kg)
KK-Ay mice = assay: Weight gain-inhibiting action, hypoglycemic effect, insulin in blood plasma lowering action in KK-Ay mice; conditions: Mus musculus, 336 h, male KK-Ay mice, high fat diet, 30 mg/kg/day oral, 2 weeks
[1] = read-out: Hypoglycemic action (30 mg/kg/day)
[2] = read-out: Insulin in blood plasma-lowering action (30 mg/kg/day)
[3] = read-out: Weight gain-inhibiting action (30 mg/kg/day)

SMILES | inhibition in vivo at 5 mg/kg (ICR mice) [%] | inhibition in vivo at 5 mg/kg (C57BL/6J mice) [%] | inhibition in vivo at 30 mg/kg (KK-Ay mice; [1]) [%] | inhibition in vivo at 30 mg/kg (KK-Ay mice; [2]) [%] | inhibition in vivo at 30 mg/kg (KK-Ay mice; [3]) [%]
Cc1cc(OCC(C)(C)C(=O)O)ncc1-c1ccc(-c2ncc(C3(C(F)(F)F)CC3)[nH]2)c(F)c1 [Example 54-4), 3-{[5-(3-fluoro-4-{5-[1-(trifluoromethyl)cyclopropyl]-1H-imidazol-2-yl]phenyl)-4-methylpyridin-2-yl}oxy}-2,2-dimethylpropanoic acid] | 74 | 46 | 74 | 93 | 113
CC(C)(COc1ccc(-c2ccc(-c3ncc(C(F)(F)F)[nH]3)nc2)cn1)C(=O)O [Example 66] | 83 | 76 | 10 | 38 | 46
CCC(CC)(COc1ccc(-c2ccc(-c3ncc(C(F)(F)F)[nH]3)cn2)cn1)C(=O)O [Example 22] | 76 | 69 | 40 | 47 | 30
Cc1cc(OCC(C)(C)C(=O)O)ncc1-c1cnc(-c2ncc(C(F)(F)F)[nH]2)c(Cl)c1 [Example 112] | 67 | 52 | 49 | 61 | 47
CC(C)(COc1ccc(-c2ccc(-c3ncc(C(F)(F)F)[nH]3)cn2)cc1F)C(=O)O [Example 4-2), 3-(2-fluoro-4-{5-[5-(trifluoromethyl)-1H-imidazol-2-yl]pyridin-2-yl}phenoxy)-2,2-dimethylpropanoic acid] | 60 | 82 | 50 | 52 | 49
